Reference: PMC8129133, “Polymer-free corticosteroid dimer implants for controlled and sustained drug delivery” (Nature Communications, 2021)
“And” between values parts separate entries of the source, which are not always exact repeats. Equal values may be shown once.

Test: In vitro release
Format: physicochemical
Settings: for Cumulative Dex (%): Fig 4b pellet 1x1 mm; for 23G x 6 mm - Cumulative Dex Release, % / 30G x 6 mm - Cumulative Dex Release, % / 23G x 6 mm - Cumulative Dex Release / 30G x 6 mm - Cumulative Dex Release: Fig 4e; for 23G x 6 mm - Cumulative Dex Release, % / 30G x 6 mm - Cumulative Dex Release, %: AVG; for 23G x 6 mm - Cumulative Dex Release / 30G x 6 mm - Cumulative Dex Release: single samples and AVG
Experimental: Pellets for release studies. Crystalline drug dimers were weighed on a stainless steel coupon. In the case of blends with a second drug, the dimer and drug were mixed at the desired mass ratio with mortar and pestle prior to weighing. Samples were transferred to a heat press (Carver Laboratory Press). A PTFE mold containing an array of 1 mm diameter holes of 1 mm depth was placed on top of the melt, and pressure was applied for 2 min. Molded pellets were cooled to room temperature and punched out of the mold, yielding a pellet of 1 mm height × 1 mm diameter.
Release studies were carried out using different media, including PBS (pH 7.4, Gibco), 100% FBS (Sigma, F1051), 1% FBS in PBS pH 7.4, and 3.6% BSA (Sigma, A7906) in PBS (pH 7.4, Gibco). […] Samples were incubated in release medium at 37 °C under constant agitation on an orbital shaker at 115 rpm (VWR). At designated timepoints, sampling was performed by complete removal of medium and replenishment with fresh buffer. Sampling timepoints included 24 h and then every 3–4 days thereafter. For PBS release conditions, samples were analyzed directly. For samples with protein (100% FBS, 1% FBS, 3.6% BSA), protein was precipitated by addition of acetonitrile. Samples were vortexed and centrifuged to separate extracted drug from precipitated protein. The supernatant was then analyzed for drug concentration by HPLC.

SMILES: C[C@@H]1C[C@H]2[C@@H]3CCC4=CC(=O)C=C[C@]4(C)[C@@]3(F)[C@@H](O)C[C@]2(C)[C@@]1(O)C(=O)COC(=O)OCCOCCOCCOC(=O)OCC(=O)[C@@]1(O)[C@H](C)C[C@H]2[C@@H]3CCC4=CC(=O)C=C[C@]4(C)[C@@]3(F)[C@@H](O)C[C@@]21C [Dex-TEG-Dex]
- Cumulative Dex (%) (1% FBS, Day 1): 0.0326% and 0.0366% and 0.0447%
- Cumulative Dex (%) (1% FBS, Day 3): 0.11% and 0.12% and 0.13%
- Cumulative Dex (%) (1% FBS, Day 7): 0.35% and 0.44% and 0.38%
- Cumulative Dex (%) (1% FBS, Day 10): 0.52% and 0.59% and 0.51%
- Cumulative Dex (%) (1% FBS, Day 14): 0.81% and 0.96% and 0.85%
- Cumulative Dex (%) (1% FBS, Day 17): 0.94% and 1.07% and 1.04%
- Cumulative Dex (%) (1% FBS, Day 21): 1.22% and 1.44% and 1.42%
- Cumulative Dex (%) (1% FBS, Day 24): 1.37% and 1.56% and 1.61%
- Cumulative Dex (%) (1% FBS, Day 28): 1.58% and 1.84% and 1.93%
- Cumulative Dex (%) (1% FBS, Day 31): 1.78% and 2.05% and 2.12%
- Cumulative Dex (%) (1% FBS, Day 35): 1.95% and 2.46% and 2.48%
- Cumulative Dex (%) (100% FBS, Day 1): 1.59% and 1.88% and 1.25%
- Cumulative Dex (%) (100% FBS, Day 3): 6.12% and 9.16% and 4.64%
- Cumulative Dex (%) (100% FBS, Day 7): 11.07% and 13.41% and 9.59%
- Cumulative Dex (%) (100% FBS, Day 10): 15.60% and 21.36% and 19.29%
- Cumulative Dex (%) (100% FBS, Day 14): 21.12% and 26.30% and 23.66%
- Cumulative Dex (%) (100% FBS, Day 17): 25.65% and 33.52% and 29.96%
- Cumulative Dex (%) (100% FBS, Day 21): 29.80% and 39.06% and 33.88%
- Cumulative Dex (%) (100% FBS, Day 24): 34.99% and 43.22% and 37.26%
- Cumulative Dex (%) (100% FBS, Day 28): 41.40% and 49.76% and 42.62%
- Cumulative Dex (%) (100% FBS, Day 31): 49.48% and 56.79% and 48.41%
- Cumulative Dex (%) (100% FBS, Day 35): 52.66% and 62.41% and 52.08%
- Cumulative Dex (%) (PBS, Day 1): 0.0268% and 0.0111% and 0.0155%
- Cumulative Dex (%) (PBS, Day 7): 0.06% and 0.0341% and 0.04%
- Cumulative Dex (%) (PBS, Day 10): 0.075% and 0.04% and 0.05%
- Cumulative Dex (%) (PBS, Day 14): 0.09% and 0.05% and 0.06%
- Cumulative Dex (%) (PBS, Day 17): 0.10% and 0.0566% and 0.07%
- Cumulative Dex (%) (PBS, Day 21): 0.12% and 0.07% and 0.09%
- Cumulative Dex (%) (PBS, Day 24): 0.13% and 0.08% and 0.10%
- Cumulative Dex (%) (PBS, Day 28): 0.15% and 0.09% and 0.11%
- Cumulative Dex (%) (PBS, Day 31): 0.16% and 0.11% and 0.12%
- Cumulative Dex (%) (PBS, Day 35): 0.17% and 0.12% and 0.13%
- 23G x 6 mm - Cumulative Dex Release, % (Day 3): 1.00%
- 30G x 6 mm - Cumulative Dex Release, % (Day 3): 4.68%
- 23G x 6 mm - Cumulative Dex Release (Day 3): 3729.09 ng and 2929.83 ng and 3290.92 ng and 3423.46 ng and 3390.39 ng and 4152.03 ng
- 30G x 6 mm - Cumulative Dex Release (Day 3): 3437.65 ng and 3035.80 ng and 2955.67 ng and 2307.19 ng and 3016.47 ng
- 23G x 6 mm - Cumulative Dex Release (Day 3, mean): 3485.95 ng
- 30G x 6 mm - Cumulative Dex Release (Day 3, mean): 2950.56 ng
- 23G x 6 mm - Cumulative Dex Release, % (Day 8): 1.83%
- 30G x 6 mm - Cumulative Dex Release, % (Day 8): 10.16%
- 23G x 6 mm - Cumulative Dex Release (Day 8): 7366.47 ng and 5713.70 ng and 5752.02 ng and 6286.74 ng and 6353.56 ng and 6670.93 ng
- 30G x 6 mm - Cumulative Dex Release (Day 8): 7053.30 ng and 6157.33 ng and 6454.99 ng and 5803.26 ng and 6543.46 ng
- 23G x 6 mm - Cumulative Dex Release (Day 8, mean): 6357.24 ng
- 30G x 6 mm - Cumulative Dex Release (Day 8, mean): 6402.47 ng
- 23G x 6 mm - Cumulative Dex Release, % (Day 10): 2.30%
- 30G x 6 mm - Cumulative Dex Release, % (Day 10): 11.65%
- 23G x 6 mm - Cumulative Dex Release (Day 10): 9158.12 ng and 7456.22 ng and 6722.99 ng and 8377.04 ng and 7947.05 ng and 8287.22 ng
- 30G x 6 mm - Cumulative Dex Release (Day 10): 7909.95 ng and 7094.85 ng and 7391.21 ng and 6693.85 ng and 7620.80 ng
- 23G x 6 mm - Cumulative Dex Release (Day 10, mean): 7991.44 ng
- 30G x 6 mm - Cumulative Dex Release (Day 10, mean): 7342.13 ng
- 23G x 6 mm - Cumulative Dex Release, % (Day 14): 3.12%
- 30G x 6 mm - Cumulative Dex Release, % (Day 14): 14.82%
- 23G x 6 mm - Cumulative Dex Release (Day 14): 11851.57 ng and 10258.34 ng and 8632.68 ng and 12053.80 ng and 11294.23 ng and 11036.15 ng
- 30G x 6 mm - Cumulative Dex Release (Day 14): 9732.58 ng and 9343.08 ng and 9295.87 ng and 8576.11 ng and 9731.17 ng
- 23G x 6 mm - Cumulative Dex Release (Day 14, mean): 10854.46 ng
- 30G x 6 mm - Cumulative Dex Release (Day 14, mean): 9335.76 ng
- 23G x 6 mm - Cumulative Dex Release, % (Day 17): 3.78%
- 30G x 6 mm - Cumulative Dex Release, % (Day 17): 17.41%
- 23G x 6 mm - Cumulative Dex Release (Day 17): 14384.84 ng and 12536.91 ng and 10299.95 ng and 14655.10 ng and 13823.20 ng and 13226.26 ng
- 30G x 6 mm - Cumulative Dex Release (Day 17): 11350.14 ng and 11189.72 ng and 10651.54 ng and 10149.26 ng and 11503.70 ng
- 23G x 6 mm - Cumulative Dex Release (Day 17, mean): 13154.38 ng
- 30G x 6 mm - Cumulative Dex Release (Day 17, mean): 10968.87 ng
- 23G x 6 mm - Cumulative Dex Release, % (Day 21): 4.61%
- 30G x 6 mm - Cumulative Dex Release, % (Day 21): 21.03%
- 23G x 6 mm - Cumulative Dex Release (Day 21): 17889.27 ng and 15640.68 ng and 12427.10 ng and 17536.82 ng and 17079.10 ng and 15733.26 ng
- 30G x 6 mm - Cumulative Dex Release (Day 21): 13690.06 ng and 13583.23 ng and 12649.08 ng and 12021.08 ng and 14305.00 ng
- 23G x 6 mm - Cumulative Dex Release (Day 21, mean): 16051.04 ng
- 30G x 6 mm - Cumulative Dex Release (Day 21, mean): 13249.69 ng
- 23G x 6 mm - Cumulative Dex Release, % (Day 24): 5.14%
- 30G x 6 mm - Cumulative Dex Release, % (Day 24): 23.23%
- 23G x 6 mm - Cumulative Dex Release (Day 24): 20230.97 ng and 17190.29 ng and 13784.68 ng and 19329.36 ng and 19335.19 ng and 17491.78 ng
- 30G x 6 mm - Cumulative Dex Release (Day 24): 15132.41 ng and 14970.59 ng and 13925.27 ng and 13373.61 ng and 15759.23 ng
- 23G x 6 mm - Cumulative Dex Release (Day 24, mean): 17893.71 ng
